Assay results taken from article PMC10079954, “Rational design of phase separating peptides based on phase separating protein sequence of p53” (Scientific Reports, 2023).

Assay: Cross-β structure detection with amyloid-sensitive probe Picogreen
Format: physicochemical
Method: Differential interference contrast (DIC) microscopy confirmed that these peptides (0.9–1.8 mM) underwent phase separation in 25 mM HEPES and 0.5 mM EDTA at pH 7.0 (Fig. 2B). To prevent the melting of clusters on the coverslip surface, 2-methacryloyloxyethyl phosphorylcholine (MPC) polymer coating was used[36],[37] (Supplementary Fig. S1). Samples were prepared by sonicating a 2 mM peptide solution or diluting the peptide solution from a 10 mM peptide stock after storage under freezing conditions. Four of the designed peptides, except DPp53N-GSGS-DPp53C2, formed μm-sized spherical clusters. Fluorescence microscopy confirmed the high concentration of peptides labeled with the fluorescent dye Alexa488 in the clusters (Fig. 2B). […] Cross-β structure was also supported by the observation of intrinsic fluorescence upon 400–440 nm excitation[40] (Supplementary Fig. S2). Clusters of aromatic W residues in DPp53N-GSGS-DPp53C2 may lead to the formation of solid aggregates, which is consistent with the results of different systems[21],[34].
The DIC and fluorescence modes of an inverted microscope (IX-73; Olympus, Tokyo, Japan) equipped with microscopic objectives (60 × and 10 ×) and a camera (DP74) were used, as described previously. We used the solution containing 0.9–1.8 mM designed peptide, 0.1 μM Alexa488-labeled peptide, 25 mM HEPES, and 0.5 mM EDTA at pH 7.0. To detect the cross-β structure, picogreen was added at 25 µM for DPp53N-GSGS-DPp53C2 or 2.5 µM for others instead of the Alexa488-labeled peptide. […] DIC and fluorescence images were obtained at 20 or 22 °C. For intrinsic fluorescence measurements, the excitation and detection wavelengths were 440–440 nm and larger than 460 nm, respectively.
Fig. S8 Time course of cross-β structure formation of designed peptides in droplets monitored by DIC and fluorescence images. The fluorescence was detected corresponding to the amyloid marker Picogreen at 2.5 µM in a solution containing 0.9 mM designed peptides, 25 mM HEPES, and 0.5 mM EDTA at pH 7.0 and 22 °C.

Picogreen fluorescence intensity in droplets versus solution (Picogreen 2.5 µM, 0.9 mM designed peptide, 25 mM HEPES, 0.5 mM EDTA, pH 7.0, 22 °C): higher than that in the solution
Cross-β structure and state of droplets after long-term incubation (long-term incubation): gel-like assemblies of the droplets
Sequence: RRRVVQRRRRGGGSGGGSGGGSDDDASQEDDD [DPp53N-(GGGS)3-DPp53C1]
